From US11179663B1, “Polyurethane-based materials” (Aviro LLC, priority 2021, dated 2021)

Key:
[1] = system: COVID-19; test: coronavirus deactivation test after attachment to the surfaces, qPCR for genes indicative of COVID-19 activity; conditions: FIG. 2; compared among the antiviral coatings
[2] = system: COVID-19; test: coronavirus capture (attachment) test on coated surfaces, crystal violet stain read by spectrophotometer; conditions: FIG. 1; virus capture by coated surfaces

Row | SMILES | potential to deactivate captured virus [1] | SARS-Cov2 capture [2]
1 | CCCCCCCCCCCCCCCCCC[N+](C)(C)CCC[Si](OC)(OC)OC.[Cl-] [DMS, Dimethyloctadecyl[3-(trimethoxysilyl)propyl]ammonium chloride] | highest potential to deactivate | 
2 | CCCCCCCCCCCCCCCC[n+]1ccccc1 [CPC, Cetyl pyridinium chloride] |  | roughly 95%
